From US20030032614A1, “Method of treating respiratory distress using synthetic polynucleic acids” (priority 1995, published 2003) come the findings set out here.

Read-outs that look alike come from different tables or passages of the source. Some results are limits rather than exact numbers.

For data set [1], the system named is heaves (equine COPD). The format is in vivo, horse. Here is the method: According to this example, a quarter horse mare, at least 20 years of age, suffering from symptoms of heaves (equine COPD) for over ten years was treated subcutaneously twice daily with synthetic DNA. Each dose contained 0.0003 mg of poly(dA):poly(dT) synthetic DNA (Sigma) diluted in phenolated saline. […] Specifically, the horse was no longer coughing, nostrils were not flaring, and breathing was less labored. After one week of administering two doses per day, administration was reduced to once per day for two weeks, then given only on an “as needed” basis.
According to this example, a 15 year old gelding (male horse) suffering from heaves (equine COPD) for over two years was treated with synthetic DNA as described in example XXXIX.

The subject of data set [2] is respiratory congestion. The data set can be described thus: Treatment of patients with respiratory congestion (emphysema, bronchitis, upper respiratory illness, sinusitis). It is filed as in vivo, human. The settings on record: middle-aged person, chronic sinusitis, one sublingual drop (0.0003 mg) four times daily. Here is the method: A patient who suffered from emphysema and bronchitis, as diagnosed by their physician, was placed on a dose of 1 drop per day (0.0006 mg/drop) of DNA sublingually.
A person diagnosed with chronic upper respiratory illness was treated with methods according to the invention. Previous antibiotic therapy was unsuccessful in treating their condition. […] They have remained symptom free.
A nurse presented with a severe upper respiratory infection and unproductive respiratory congestion. […] Expectoration was improved and the patient's illness resolved after 4.5 days and no congestion recurred.
A person presented with chronic sinusitis. Four drops of DNA per day were administered.
A person presented with unresolved respiratory congestion. […] The patient was then prescribed four drops of DNA (0.0006 mg/drop) per day.
A person with unproductive upper respiratory congestion was placed on 4 drops of DNA (0.0006 mg/drop) per day. […] In this case, therapy was supplemented with an over-the-counter expectorant.
A person with acute and chronic respiratory disease due to exposure to toxic corrosive materials was treated with methods according to the invention. Prior to such treatment, symptoms, including chronic rhinorrhea, chest congestion and chronic respiratory infections were treated with numerous courses of antibiotics without success. […]

In data set [3] the test system is cystic fibrosis. Nature of the data set: Treatment of cystic fibrosis patients with DNA drops. It is filed as in vivo, human. The settings on record: person, advanced cystic fibrosis, 0.0003 mg per sublingual drop, four times daily.

Take poly(dA):poly(dT): the improvement result in data set [1] (15 year old gelding, treated as in example XXXIX) is reported as “Improvement was noted within the first three days”. In data set [1] (in vivo), the adverse effects entry is “no adverse effects noted”. In addition, the “condition of the horse” value in data set [1] (quarter horse mare, 0.0003 mg subcutaneously twice daily, thirty-six hours after treatment began) was “significantly improved”. For the same substance, in data set [2], the overall response entry is given as “improved overall response, including the absence of headaches” and the “time to improvement in condition” value was at most 48 h. Besides, in data set [3], the “therapeutic activity after change to synthetic DNA” value is listed as “no decrease in therapeutic activity”.

As for poly(dG):poly(dC), the “condition of the horse” value was “significant improvement” in data set [1] (15 year old gelding) and “significant improvement” in data set [1] (quarter horse mare, identical treatment). Besides, the “therapeutic activity after change to synthetic DNA” value in data set [3] was “same results”.
